# Assay results taken from US9771359B1, “Substituted oxazole- and thiazole-based carboxamide and urea derivatives as vanilloid receptor ligands II” (MEDIFRON DBT INC., priority 2014, dated 2017).
# Target: vanilloid receptor 1 (VR1/TRPV1) (Homo sapiens (Human), UniProt Q8NER1)
# Test: FLIPR assay, Ca2+ influx in CHO K1 cells transfected with the human VR1 gene
# Type: cell-based
# Settings: compound 5 μM, % activation compared with control capsaicin 10 μM
# Procedure: Furthermore, preference may be given to compounds according to the first aspect of the invention that cause a 50% displacement of capsaicin, which is present at a concentration of 100 nM, in a FLIPR assay with CHO K1 cells which were transfected with the human VR1 gene at a concentration of less than 2 000 nM, preferably less than 1 000 nM, particularly preferably less than 300 nM, most particularly preferably less than 100 nM, even more preferably less than 75 nM, additionally preferably less than 50 nM, most preferably less than 10 nM. In the process, the Ca^2+ influx is quantified in the FLIPR assay with the aid of a Ca^2+-sensitive dye (type Fluo-4, Molecular Probes Europe BV, Leiden, the Netherlands) in a fluorescent imaging plate reader (FLIPR, Molecular Devices, Sunnyvale, USA), as described hereinafter.
# The FLIPR protocol consists of 2 substance additions during a kinetic measurement. First the compounds to be tested (5 μM) are pipetted onto the cells and the Ca^2+ influx is determined in comparison to the control (capsaicin 10 μM), providing the result as % activation and representing the compound-alone effect (calculation at peak signal related to baseline). […] After 5 min incubation, the Ca^2+ influx is related to an injection of 100 nM of capsaicin and thereby the antagonistic effect of the test compounds detected.
# Desensitising agonists and antagonists lead to suppression of the Ca^2+ influx. The % inhibition is calculated compared to the maximum achievable inhibition with 10 μM of capsaicin. Triple analyses (n=3) are carried out and repeated in at least 3 independent experiments.
# Starting from the percentage displacement caused by different concentrations of the compounds to be tested of general formula I, IC50 inhibitory concentrations which cause a 50-% displacement of capsaicin were calculated. Ki values for the test substances were obtained by conversion by means of the Cheng-Prusoff equation (Cheng, Prusoff; Biochem. Pharmacol. 22, 3099-3108, 1973).
# Chinese hamster ovary cells (CHO K1 cells, European Collection of Cell Cultures (ECACC) United Kingdom) are stably transfected with the VR1 gene. For functional testing, these cells are plated out on poly-D-lysine-coated black 96-well plates having a clear base (BD Biosciences, Heidelberg, Germany) at a density of 25,000 cells/well. The cells are incubated overnight at 37° C. and 5% CO2 in a culture medium (Ham's F12 nutrient mixture, 10% by volume of FCS (foetal calf serum), 18 μg/ml of L-proline). The next day the cells are incubated with Fluo-4 (Fluo-4 2 μM, 0.01% by volume of Pluronic F127, Molecular Probes in HBSS (Hank's buffered saline solution), Gibco Invitrogen GmbH, Karlsruhe, Germany) for 30 min at 37° C. Subsequently, the plates are washed three times with HBSS buffer and after further incubation for 15 min at RT used for Ca^2+ measurement in a FLIPR assay. The Ca^2+-dependent fluorescence is measured before and after the addition of the substances to be tested (λex wavelength=488 nm, λem=540 nm). Quantification is carried out by measuring the highest fluorescence intensity (FC, fluorescence counts) over time.
# vanilloid receptor 1 (VR1/TRPV1), sequence (Q8NER1 whole entry): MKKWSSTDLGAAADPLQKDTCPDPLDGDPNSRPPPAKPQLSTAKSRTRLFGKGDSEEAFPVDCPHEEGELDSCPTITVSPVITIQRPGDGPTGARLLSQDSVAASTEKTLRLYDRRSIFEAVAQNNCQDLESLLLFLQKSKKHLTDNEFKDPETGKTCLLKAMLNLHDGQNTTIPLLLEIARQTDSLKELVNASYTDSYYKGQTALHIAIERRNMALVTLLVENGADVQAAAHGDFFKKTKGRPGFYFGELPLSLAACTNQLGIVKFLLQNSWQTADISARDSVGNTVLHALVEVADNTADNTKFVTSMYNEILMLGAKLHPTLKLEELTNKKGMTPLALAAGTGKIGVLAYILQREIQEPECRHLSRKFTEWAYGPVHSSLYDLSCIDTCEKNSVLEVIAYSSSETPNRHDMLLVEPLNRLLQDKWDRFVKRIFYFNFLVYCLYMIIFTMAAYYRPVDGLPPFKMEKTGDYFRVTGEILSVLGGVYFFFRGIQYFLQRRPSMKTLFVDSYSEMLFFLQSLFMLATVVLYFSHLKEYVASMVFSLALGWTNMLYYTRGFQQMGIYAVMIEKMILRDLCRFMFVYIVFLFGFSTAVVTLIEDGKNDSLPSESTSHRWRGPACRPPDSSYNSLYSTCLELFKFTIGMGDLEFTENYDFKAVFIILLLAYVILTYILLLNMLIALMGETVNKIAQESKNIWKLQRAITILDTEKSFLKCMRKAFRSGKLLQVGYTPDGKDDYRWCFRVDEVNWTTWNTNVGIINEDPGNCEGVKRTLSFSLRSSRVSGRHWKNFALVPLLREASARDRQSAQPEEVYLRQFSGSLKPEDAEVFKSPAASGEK
row,SMILES,compound-alone effect on Ca2+ influx (agonist / partial agonist)
1,"Cc1cccc(-c2nc(C(C)(C)C)sc2CNC(=O)C(C)c2ccc(CNS(C)(=O)=O)c(F)c2)c1 (stereo not drawn) [EX-04, N-((2-(tert-butyl)-4-(m-tolyl)thiazol-5-yl)methyl)-2-(3-fluoro-4-(methylsulfonamidomethyl)phenyl)propanamide]",pAG (A Ca^2+ influx of 10%-60% reveals a partial agonist (pAG))
2,"CC(C(=O)NCc1sc(C(C)(C)C)nc1-c1cccc(Cl)c1)c1ccc(CO)c(F)c1 (stereo not drawn) [EX-07, N-((2-(tert-butyl)-4-(3-chlorophenyl)thiazol-5-yl)methyl)-2-(3-fluoro-4-(hydroxymethyl)phenyl)propanamide]",AG (a Ca^2+ influx of >60% relates to a pure agonist (AG))
3,"Cc1cccc(-c2nc(C(C)(C)C)sc2CNC(=O)C(C)c2ccc(CO)c(F)c2)c1 (stereo not drawn) [EX-08, N-((2-(tert-butyl)-4-(m-tolyl)thiazol-5-yl)methyl)-2-(3-fluoro-4-(hydroxymethyl)phenyl)propanamide]",AG (a Ca^2+ influx of >60% relates to a pure agonist (AG))
4,"CC(C(=O)NCc1oc(C(F)(F)F)nc1-c1cccc(Cl)c1)c1ccc(C2(O)COC2)cc1 (stereo not drawn) [EX-09, N-((4-(3-chlorophenyl)-2-(trifluoromethyl)oxazol-5-yl)methyl)-2-(4-(3-hydroxyoxetan-3-yl)phenyl)propanamide]",pAG (A Ca^2+ influx of 10%-60% reveals a partial agonist (pAG))
5,"CC(C(=O)NCc1sc(C(F)(F)F)nc1-c1cccc(Cl)c1)c1ccc(C2(O)COC2)cc1 (stereo not drawn) [EX-10, N-((4-(3-chlorophenyl)-2-(trifluoromethyl)thiazol-5-yl)methyl)-2-(4-(3-hydroxyoxetan-3-yl)phenyl)propanamide]",pAG (A Ca^2+ influx of 10%-60% reveals a partial agonist (pAG))

# Same assay, conditions: displacement of capsaicin 100 nM; Ki from IC50 by Cheng-Prusoff equation; read-out: (f) Ki (human) [nM] Cap
row,SMILES,Ki [nM]
1,"CC(C(=O)NCc1sc(C(F)(F)F)nc1-c1cccc(Cl)c1)c1ccc(NCCO)nc1 (single isomer, unassigned) [EX-15, N-((4-(3-chlorophenyl)-2-(trifluoromethyl)thiazol-5-yl)methyl)-2-(6-((2-hydroxyethyl)amino)pyridin-3-yl)propanamide]",0.4
2,"CC(C(=O)NCc1sc(C(F)(F)F)nc1-c1cccc(Cl)c1)c1ccc(NCCO)nc1 (single isomer, unassigned) [EX-16, N-((4-(3-chlorophenyl)-2-(trifluoromethyl)thiazol-5-yl)methyl)-2-(6-((2-hydroxyethyl)amino)pyridin-3-yl)propanamide]",41.9
3,"CC(C(=O)NCc1oc(C(F)(F)F)nc1-c1cccc(Cl)c1)c1ccc(NCCO)nc1 (single isomer, unassigned) [EX-17, N-((4-(3-chlorophenyl)-2-(trifluoromethyl)oxazol-5-yl)methyl)-2-(6-((2-hydroxyethyl)amino)pyridin-3-yl)propanamide]",0.7
4,"CC(C(=O)NCc1oc(C(F)(F)F)nc1-c1cccc(Cl)c1)c1ccc(NCCO)nc1 (single isomer, unassigned) [EX-18, N-((4-(3-chlorophenyl)-2-(trifluoromethyl)oxazol-5-yl)methyl)-2-(6-((2-hydroxyethyl)amino)pyridin-3-yl)propanamide]",96.7
5,"CC(C(=O)NCc1sc(C(F)(F)F)nc1-c1cccc(Cl)c1)c1ccc(CCO)c(F)c1 (stereo not drawn) [EX-01, N-((4-(3-chlorophenyl)-2-(trifluoromethyl)thiazol-5-yl)methyl)-2-(3-fluoro-4-(2-hydroxyethyl)phenyl)-propanamide]",1.4
6,"CC(C(=O)NCc1oc(C(F)(F)F)nc1-c1cccc(Cl)c1)c1ccc(CCO)c(F)c1 (stereo not drawn) [EX-02, N-((4-(3-chlorophenyl)-2-(trifluoromethyl)oxazol-5-yl)methyl)-2-(3-fluoro-4-(2-hydroxyethyl)-phenyl)propanamide]",28.4
7,"CC(C(=O)NCc1sc(C(C)(C)C)nc1-c1cccc(Cl)c1)c1ccc(CNS(C)(=O)=O)c(F)c1 (stereo not drawn) [EX-03, N-((2-(tert-butyl)-4-(3-chlorophenyl)thiazol-5-yl)methyl)-2-(3-fluoro-4-(methylsulfonamido-methyl)phenyl)propanamide]",0.6
8,"Cc1cccc(-c2nc(C(C)(C)C)sc2CNC(=O)C(C)c2ccc(CNS(C)(=O)=O)c(F)c2)c1 (stereo not drawn) [EX-04, N-((2-(tert-butyl)-4-(m-tolyl)thiazol-5-yl)methyl)-2-(3-fluoro-4-(methylsulfonamidomethyl)phenyl)propanamide]",1
9,"CC(C(=O)NCc1oc(C(F)(F)F)nc1-c1cccc(Cl)c1)c1ccc(CNS(N)(=O)=O)cc1 (stereo not drawn) [EX-05, N-((4-(3-chlorophenyl)-2-(trifluoromethyl)oxazol-5-yl)methyl)-2-(4-((sulfamoylamino)methyl)-phenyl)propanamide]",7.5
10,"CC(C(=O)NCc1sc(C(F)(F)F)nc1-c1cccc(Cl)c1)c1ccc(CNS(N)(=O)=O)cc1 (stereo not drawn) [EX-06, N-((4-(3-chlorophenyl)-2-(trifluoromethyl)thiazol-5-yl)methyl)-2-(4-((sulfamoylamino)methyl)-phenyl)propanamide]",0.7
11,"CC(C(=O)NCc1oc(C(F)(F)F)nc1-c1cccc(Cl)c1)c1ccc(C2(O)COC2)cc1 (stereo not drawn) [EX-09, N-((4-(3-chlorophenyl)-2-(trifluoromethyl)oxazol-5-yl)methyl)-2-(4-(3-hydroxyoxetan-3-yl)phenyl)propanamide]",73.8
12,"CC(C(=O)NCc1sc(C(F)(F)F)nc1-c1cccc(Cl)c1)c1ccc(C2(O)COC2)cc1 (stereo not drawn) [EX-10, N-((4-(3-chlorophenyl)-2-(trifluoromethyl)thiazol-5-yl)methyl)-2-(4-(3-hydroxyoxetan-3-yl)phenyl)propanamide]",8.8
13,"CC(C(=O)NCc1oc(C(F)(F)F)nc1-c1cccc(Cl)c1)c1cnc(CCS(C)(=O)=O)c(F)c1 (stereo not drawn) [EX-11, N-((4-(3-chlorophenyl)-2-(trifluoromethyl)oxazol-5-yl)methyl)-2-(5-fluoro-6-(2-(methylsulfonyl)ethyl)pyridin-3-yl)propanamide]",53.1
14,"CC(C(=O)NCc1sc(C(F)(F)F)nc1-c1cccc(Cl)c1)c1cnc(CCS(C)(=O)=O)c(F)c1 (stereo not drawn) [EX-12, N-((4-(3-chlorophenyl)-2-(trifluoromethyl)thiazol-5-yl)methyl)-2-(5-fluoro-6-(2-(methylsulfonyl)ethyl)pyridin-3-yl)propanamide]",1.1
15,"CC(C(=O)NCc1oc(C(F)(F)F)nc1-c1cccc(Cl)c1)c1ccc(NCCO)nc1 (stereo not drawn) [EX-13, N-((4-(3-chlorophenyl)-2-(trifluoromethyl)oxazol-5-yl)methyl)-2-(6-((2-hydroxyethyl)amino)pyridin-3-yl)propanamide]",5.2
16,"CC(C(=O)NCc1sc(C(F)(F)F)nc1-c1cccc(Cl)c1)c1ccc(NCCO)nc1 (stereo not drawn) [EX-14, N-((4-(3-chlorophenyl)-2-(trifluoromethyl)thiazol-5-yl)methyl)-2-(6-((2-hydroxyethyl)amino)pyridin-3-yl)propanamide]",0.7
17,"CC(C(=O)NCc1oc(C(F)(F)F)nc1-c1cccc(Cl)c1)c1cnc(CO)c(F)c1 (stereo not drawn) [EX-19, N-((4-(3-chlorophenyl)-2-(trifluoromethyl)oxazol-5-yl)methyl)-2-(5-fluoro-6-(hydroxymethyl)pyridin-3-yl)propanamide]",13.8
18,"CC(C(=O)NCc1sc(C(F)(F)F)nc1-c1cccc(Cl)c1)c1cnc(CO)c(F)c1 (stereo not drawn) [EX-20, N-((4-(3-chlorophenyl)-2-(trifluoromethyl)thiazol-5-yl)methyl)-2-(5-fluoro-6-(hydroxymethyl)pyridin-3-yl)propanamide]",0.3
19,"CC(C(=O)NCc1oc(C(F)(F)F)nc1-c1cccc(Cl)c1)c1ccc(CNS(N)(=O)=O)c(F)c1 (stereo not drawn) [EX-23, N-((4-(3-chlorophenyl)-2-(trifluoromethyl)oxazol-5-yl)methyl)-2-(3-fluoro-4-((sulfamoylamino)methyl)phenyl)propanamide]",4.7
20,"CC(C(=O)NCc1sc(C(F)(F)F)nc1-c1cccc(Cl)c1)c1ccc(CNS(N)(=O)=O)c(F)c1 (stereo not drawn) [EX-24, N-((4-(3-chlorophenyl)-2-(trifluoromethyl)thiazol-5-yl)methyl)-2-(3-fluoro-4-((sulfamoylamino)methyl)phenyl)propanamide]",2.35

# Same assay, conditions: inhibition <10% @5 μM
row,SMILES,(f) Ki (human) Cap: no effect
1,"CC(C(=O)NCc1oc(C(F)(F)F)nc1-c1cccc(Cl)c1)c1cnc(CO)c(F)c1 (stereo not drawn) [EX-21, N-((4-(3-chlorophenyl)-2-(trifluoromethyl)oxazol-5-yl)methyl)-2-(5-fluoro-6-(hydroxymethyl)pyridin-3-yl)propanamide]",ne (ne=no effect (<10% @5 μM))
2,"CC(C(=O)NCc1oc(C(F)(F)F)nc1-c1cccc(Cl)c1)c1cnc(CO)c(F)c1 (stereo not drawn) [EX-22, N-((4-(3-chlorophenyl)-2-(trifluoromethyl)oxazol-5-yl)methyl)-2-(5-fluoro-6-(hydroxymethyl)pyridin-3-yl)propanamide]",ne (ne=no effect (<10% @5 μM))
